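Values below derive from 48-hour exposures of cells grown in 96-well plates, with endpoints linearly interpolated between the two concentrations bracketing the appropriate inhibition level. Definition used: TGI = concentration required for complete inhibition of growth.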
Legend:
Experiment in all cases: DTP human tumour cell line panel, 48 h
SK-MEL-28 melanoma = test system: SK-MEL-28 melanoma
OVCAR-8 ovarian = test system: OVCAR-8 ovarian
NCI-H23 lung = test system: NCI-H23 lung
TK-10 renal = test system: TK-10 renal
HOP-18 NSCLC = test system: HOP-18 NSCLC
KM20L2 colon = test system: KM20L2 colon
SNB-78 CNS = test system: SNB-78 CNS
SF-539 CNS = test system: SF-539 CNS
MALME-3M melanoma = test system: MALME-3M melanoma
SNB-75 CNS = test system: SNB-75 CNS
OVCAR-4 ovarian = test system: OVCAR-4 ovarian
K-562 leukemia = test system: K-562 leukemia
HCT-15 colon = test system: HCT-15 colon
SN12C renal = test system: SN12C renal
RPMI-8226 leukemia = test system: RPMI-8226 leukemia
UACC-62 melanoma = test system: UACC-62 melanoma
786-0 renal = test system: 786-0 renal
SK-MEL-5 melanoma = test system: SK-MEL-5 melanoma
DMS 114 small cell lung = test system: DMS 114 small cell lung
RXF 393 renal = test system: RXF 393 renal
CAKI-1 renal = test system: CAKI-1 renal
NCI-H460 lung = test system: NCI-H460 lung
SR leukemia = test system: SR leukemia
OVCAR-5 ovarian = test system: OVCAR-5 ovarian
M19-MEL melanoma = test system: M19-MEL melanoma
DLD-1 colon = test system: DLD-1 colon
HOP-92 NSCLC = test system: HOP-92 NSCLC
ACHN renal = test system: ACHN renal
A498 renal = test system: A498 renal
CCRF-CEM leukemia = test system: CCRF-CEM leukemia
SF-295 CNS = test system: SF-295 CNS
SW-620 colon = test system: SW-620 colon
HCT-116 colon = test system: HCT-116 colon
COLO 205 colon = test system: COLO 205 colon
EKVX NSCLC = test system: EKVX NSCLC
DMS 273 small cell lung = test system: DMS 273 small cell lung
UACC-257 melanoma = test system: UACC-257 melanoma
SK-MEL-2 melanoma = test system: SK-MEL-2 melanoma
OVCAR-3 ovarian = test system: OVCAR-3 ovarian
HOP-62 NSCLC = test system: HOP-62 NSCLC
A549 NSCLC = test system: A549 NSCLC
KM12 colon = test system: KM12 colon
LOX IMVI melanoma = test system: LOX IMVI melanoma
HT29 colon = test system: HT29 colon
SNB-19 CNS = test system: SNB-19 CNS
U251 CNS = test system: U251 CNS
IGROV1 ovarian = test system: IGROV1 ovarian
SF-268 CNS = test system: SF-268 CNS
NCI/ADR-RES ovarian = test system: NCI/ADR-RES ovarian
T-47D breast = test system: T-47D breast
MCF7 breast = test system: MCF7 breast
M14 melanoma = test system: M14 melanoma
MDA-MB-231 breast = test system: MDA-MB-231 breast
BT-549 breast = test system: BT-549 breast
MOLT-4 leukemia = test system: MOLT-4 leukemia
UO-31 renal = test system: UO-31 renal
MDA-MB-435 = test system: MDA-MB-435
MDA-N = test system: MDA-N
HS 578T breast = test system: HS 578T breast
HCC-2998 colon = test system: HCC-2998 colon
NCI-H522 lung = test system: NCI-H522 lung
HL-60(TB) leukemia = test system: HL-60(TB) leukemia
DU-145 prostate = test system: DU-145 prostate
PC-3 prostate = test system: PC-3 prostate
NCI-H226 lung = test system: NCI-H226 lung
SK-OV-3 ovarian = test system: SK-OV-3 ovarian

## C=CCCc1cc(OC)ccc1CN(C)C(C)(C)CO
SK-MEL-28 melanoma
  TGI: > 100 µM
OVCAR-8 ovarian
  TGI: > 100 µM
NCI-H23 lung
  TGI: > 100 µM
TK-10 renal
  TGI: > 100 µM
HOP-18 NSCLC
  TGI: > 100 µM
KM20L2 colon
  TGI: > 100 µM
SNB-78 CNS
  TGI: > 100 µM
SF-539 CNS
  TGI: > 100 µM
MALME-3M melanoma
  TGI: > 100 µM
SNB-75 CNS
  TGI: > 100 µM
OVCAR-4 ovarian
  TGI: > 100 µM
K-562 leukemia
  TGI: > 100 µM
HCT-15 colon
  TGI: > 100 µM
SN12C renal
  TGI: > 100 µM
RPMI-8226 leukemia
  TGI: > 100 µM
UACC-62 melanoma
  TGI: > 100 µM
786-0 renal
  TGI: > 100 µM
SK-MEL-5 melanoma
  TGI: > 100 µM
DMS 114 small cell lung
  TGI: > 100 µM
RXF 393 renal
  TGI: > 100 µM
CAKI-1 renal
  TGI: > 100 µM
NCI-H460 lung
  TGI: > 100 µM
SR leukemia
  TGI: > 100 µM
OVCAR-5 ovarian
  TGI: > 100 µM
M19-MEL melanoma
  TGI: > 100 µM
DLD-1 colon
  TGI: > 100 µM
HOP-92 NSCLC
  TGI: > 100 µM
ACHN renal
  TGI: > 100 µM
A498 renal
  TGI: > 100 µM
CCRF-CEM leukemia
  TGI: > 100 µM
SF-295 CNS
  TGI: > 100 µM
SW-620 colon
  TGI: > 100 µM
HCT-116 colon
  TGI: > 100 µM
COLO 205 colon
  TGI: > 100 µM
EKVX NSCLC
  TGI: > 100 µM
DMS 273 small cell lung
  TGI: > 100 µM
UACC-257 melanoma
  TGI: > 100 µM
SK-MEL-2 melanoma
  TGI: > 100 µM
OVCAR-3 ovarian
  TGI: > 100 µM
HOP-62 NSCLC
  TGI: > 100 µM
A549 NSCLC
  TGI: > 100 µM
KM12 colon
  TGI: > 100 µM
LOX IMVI melanoma
  TGI: > 100 µM
HT29 colon
  TGI: > 100 µM
SNB-19 CNS
  TGI: > 100 µM
U251 CNS
  TGI: > 100 µM
IGROV1 ovarian
  TGI: > 100 µM
SF-268 CNS
  TGI: > 100 µM

## C=CCNC1=C2C[C@@H](C)C[C@@H](OC)C(OC(=O)CCCN(C)C)[C@H](C)/C=C(\C)[C@@H](OC(N)=O)[C@H](OC)/C=C\C=C(/C)C(=O)NC(=CC1=O)C2=O (some centres not stated)
SK-MEL-28 melanoma
  TGI: 27.4 µM
OVCAR-8 ovarian
  TGI: 16 µM
NCI/ADR-RES ovarian
  TGI: 52.1 µM
NCI-H23 lung
  TGI: 20.8 µM
TK-10 renal
  TGI: 25.1 µM
T-47D breast
  TGI: 24.7 µM
MCF7 breast
  TGI: 12.1 µM
M14 melanoma
  TGI: 20.7 µM
SF-539 CNS
  TGI: 19.3 µM
MALME-3M melanoma
  TGI: 14.4 µM
MDA-MB-231 breast
  TGI: 17.5 µM
BT-549 breast
  TGI: 27.6 µM
SNB-75 CNS
  TGI: 22.9 µM
OVCAR-4 ovarian
  TGI: 26.3 µM
K-562 leukemia
  TGI: > 100 µM
HCT-15 colon
  TGI: 19.4 µM
SN12C renal
  TGI: 12.6 µM
RPMI-8226 leukemia
  TGI: 44.3 µM
UACC-62 melanoma
  TGI: 26 µM
MOLT-4 leukemia
  TGI: 39.1 µM
UO-31 renal
  TGI: 26.6 µM
786-0 renal
  TGI: 24.8 µM
SK-MEL-5 melanoma
  TGI: 8.73 µM
RXF 393 renal
  TGI: 18.6 µM
CAKI-1 renal
  TGI: 25.2 µM
MDA-MB-435
  TGI: 26 µM
NCI-H460 lung
  TGI: 13.9 µM
SR leukemia
  TGI: 8.97 µM
OVCAR-5 ovarian
  TGI: 28.5 µM
MDA-N
  TGI: 19.8 µM
HOP-92 NSCLC
  TGI: 34.9 µM
ACHN renal
  TGI: 20.6 µM
A498 renal
  TGI: 26.9 µM
CCRF-CEM leukemia
  TGI: 31.3 µM
SF-295 CNS
  TGI: 20.5 µM
SW-620 colon
  TGI: 16.9 µM
HCT-116 colon
  TGI: 20.4 µM
HS 578T breast
  TGI: 41.7 µM
COLO 205 colon
  TGI: 6.5 µM
EKVX NSCLC
  TGI: 26.1 µM
HCC-2998 colon
  TGI: 17.6 µM
UACC-257 melanoma
  TGI: 27.5 µM
NCI-H522 lung
  TGI: 20.5 µM
SK-MEL-2 melanoma
  TGI: 25.5 µM
OVCAR-3 ovarian
  TGI: 11.7 µM
HL-60(TB) leukemia
  TGI: 20.2 µM
HOP-62 NSCLC
  TGI: 21.5 µM
A549 NSCLC
  TGI: 14.6 µM
DU-145 prostate
  TGI: 18.1 µM
PC-3 prostate
  TGI: 17.2 µM
KM12 colon
  TGI: 14.6 µM
LOX IMVI melanoma
  TGI: 21.7 µM
NCI-H226 lung
  TGI: 29.4 µM
HT29 colon
  TGI: 12.1 µM
SNB-19 CNS
  TGI: 28.9 µM
U251 CNS
  TGI: 26.6 µM
IGROV1 ovarian
  TGI: 21.7 µM
SK-OV-3 ovarian
  TGI: 12.6 µM
SF-268 CNS
  TGI: 27.6 µM
